Experimental data from publication PMC10398856 (ACS Omega, 2023).

How the values were obtained:
[1] = tested on: SARS-CoV-2 NIV2020-770 (D614G variant); assay type: cell-based; details: read-out: IC50, antiviral effect on SARS-CoV-2 NIV2020-770 (D614G variant)
[2] = tested on: SARS-CoV-2 Delta (B.617.2 variant); assay: microbe, parasite or virus in culture; assay type: cell-based; details: Severe acute respiratory syndrome coronavirus 2, read-out: IC50, antiviral effect on SARS-CoV-2 Delta (B.617.2 variant)

## Cc1cccc(CSc2nccc(OCCCOc3cc(=O)oc4ccccc34)n2)c1 [5f, 4-(3-((2-((3-Methylbenzyl)thio)pyrimidin-4-yl)oxy)propoxy)-2H-chromen-2-one]
[1]
  IC50: < 25 µM
[2]
  IC50: < 2.5 µM

## O=c1cc(OCCOc2ccnc(SCc3ccc(Cl)cc3)n2)c2ccccc2o1 [5i, 4-(2-((2-((4-Chlorobenzyl)thio)pyrimidin-4-yl)oxy)ethoxy)-2H-chromen-2-one]
[1]
  IC50: < 10 µM
[2]
  IC50: < 2.5 µM

## Cc1cccc(CSc2nccc(OCCOc3cc(=O)oc4ccc(F)cc34)n2)c1 [5g, 6-Fluoro-4-(2-((2-((3-methylbenzyl)thio)pyrimidin-4-yl)oxy)ethoxy)-2H-chromen-2-one]
[1]
  IC50: < 25 µM
[2]
  IC50: < 10 µM

## O=c1cc(OCCOc2ccnc(SCc3ccc(F)cc3)n2)c2ccccc2o1 [5a, 4-(2-((2-((4-Fluorobenzyl)thio)pyrimidin-4-yl)oxy)ethoxy)-2H-chromen-2-one]
[1]
  IC50: < 50 µM
[2]
  IC50: < 25 µM

## O=c1cc(OCCOc2ccnc(SCc3ccc(F)cc3)n2)c2cc(F)ccc2o1 [5c, 6-Fluoro-4-(2-((2-((4-fluorobenzyl)thio)pyrimidin-4-yl)oxy)ethoxy)-2H-chromen-2-one]
[1]
  IC50: < 2.5 µM
[2]
  IC50: < 10 µM

## Cc1cccc(CSc2nccc(OCCCOc3cc(=O)oc4ccc(F)cc34)n2)c1 [5h, 6-Fluoro-4-(3-((2-((3-methylbenzyl)thio)pyrimidin-4-yl)oxy)propoxy)-2H-chromen-2-one]
[1]
  IC50: < 2.5 µM
[2]
  IC50: < 10 µM

## O=c1cc(OCCCOc2ccnc(SCc3ccc(F)cc3)n2)c2cc(F)ccc2o1 [5d, 6-Fluoro-4-(3-((2-((4-fluorobenzyl)thio)pyrimidin-4-yl)oxy)propoxy)-2H-chromen-2-one]
[1]
  IC50: < 10 µM
[2]
  IC50: < 10 µM

## Cc1cccc(CSc2nccc(OCCOc3cc(=O)oc4ccccc34)n2)c1 [5e, 4-(2-((2-((3-Methylbenzyl)thio)pyrimidin-4-yl)oxy)ethoxy)-2H-chromen-2-one]
[1]
  IC50: < 25 µM
[2]
  IC50: < 10 µM

## O=c1cc(OCCCOc2ccnc(SCc3ccc(F)cc3)n2)c2ccccc2o1 [5b, 4-(3-((2-((4-Fluorobenzyl)thio)pyrimidin-4-yl)oxy)propoxy)-2H-chromen-2-one]
[1]
  IC50: < 10 µM
[2]
  IC50: < 2.5 µM
